Experimental data reported in patent US20230077155A1, “TETRAHYDROISOQUINOLINE COMPOUND AS POTASSIUM CHANNEL MODULATOR AND PREPARATION AND APPLICATION THEREOF” (Shanghai Zhimeng Biopharma, Inc., priority 2020, published 2023).
One block for each molecule: values may come before it.

Tests used:
[1] = target: T1, KCNQ2 potassium channel (CHO-KCNQ2 cells) (Homo sapiens, UniProt O43526); assay: Potassium ion channel opener activity test (FDSS/μCELL detection, FluxOR thallium flux); format: cell-based; conditions: for Maximum agonist rate (%): highest test concentration 100 μM
T1 construct: expressed in transfected cells; host or cells: CHO cells stably expressing KCNQ2, kept under G418 selection
T1 sequence (O43526 whole entry): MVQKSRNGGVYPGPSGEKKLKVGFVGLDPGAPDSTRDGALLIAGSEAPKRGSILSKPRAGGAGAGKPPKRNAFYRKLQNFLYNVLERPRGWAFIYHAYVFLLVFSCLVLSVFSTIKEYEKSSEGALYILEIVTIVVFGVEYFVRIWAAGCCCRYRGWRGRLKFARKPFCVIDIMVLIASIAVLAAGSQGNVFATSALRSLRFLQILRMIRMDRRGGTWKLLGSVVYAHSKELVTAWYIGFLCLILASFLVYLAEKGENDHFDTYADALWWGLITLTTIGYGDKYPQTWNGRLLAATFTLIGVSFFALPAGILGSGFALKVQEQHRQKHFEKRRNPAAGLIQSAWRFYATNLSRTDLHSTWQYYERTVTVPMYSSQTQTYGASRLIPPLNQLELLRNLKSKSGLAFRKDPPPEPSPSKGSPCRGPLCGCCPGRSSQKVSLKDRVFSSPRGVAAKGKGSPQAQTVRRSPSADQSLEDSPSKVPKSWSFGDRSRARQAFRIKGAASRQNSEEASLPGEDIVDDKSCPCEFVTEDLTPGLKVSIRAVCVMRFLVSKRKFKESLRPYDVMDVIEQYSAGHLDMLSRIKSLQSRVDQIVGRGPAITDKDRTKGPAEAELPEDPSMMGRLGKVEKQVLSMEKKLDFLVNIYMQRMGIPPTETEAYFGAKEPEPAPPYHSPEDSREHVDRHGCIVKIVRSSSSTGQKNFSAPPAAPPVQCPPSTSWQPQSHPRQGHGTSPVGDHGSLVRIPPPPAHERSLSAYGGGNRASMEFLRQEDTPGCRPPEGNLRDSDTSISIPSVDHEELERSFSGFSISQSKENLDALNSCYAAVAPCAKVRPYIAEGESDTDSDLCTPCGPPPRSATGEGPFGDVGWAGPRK
Experimental: Potassium Ion Channel Opener Activity Test (FDSS/μCELL Detection)
1.1 Experimental procedure
Cell preparation: CHO-KCNQ2 cells were cultured in a 175 cm^2 culture flask, and when the cell density grew to 60-80%, the culture medium was removed, washed with 7 mL PBS (Phosphate Buffered Saline) once, then 3 mL 0.25% Trypsin was added to digest. After the digestion was completed, 7 mL culture medium (90% DMEM/F12+10% FBS±500 μg/mL G418) was added to neutralize, centrifugated for 3 minutes at 800 rpm. The supernatant was aspirated, then 5 mL culture medium was added to resuspend, and then the cells were counted.
Cell plating: according to the results of cell counting, the density was adjusted to 3×10^4 cells/well. After standing at room temperature for 30 minutes, the plate was placed in a 37° C. CO2 incubator and incubated overnight for 16-18 hours. The cell density reached about 80%.
Fluorescent dye incubation: the cell culture medium was discarded, 80 μL/well loading buffer was added, and incubated in the dark at room temperature for 60 minutes. Compound incubation: the loading buffer was discarded, 80 μL/well prepared compound solution was added, and incubated in the dark at room temperature for 20 minutes.
Fluorescence data collection: FDSS/μCELL instrument was used for real-time fluorescence signal recording with excitation wavelength at 480 nm and emission wavelength at 540 nm, recorded 1 time per second, and 20 μL/well stimulation buffer was started to add after recording for 10 seconds for baseline, and then continued to record until the end of 180 seconds.
The above buffer come from a commercially available kit named FluxOR potassium ion channel assay.
20 mM DMSO compound mother liquor was prepared, 10 μL of 20 mM compound mother liquor was took into 20 μL DMSO solution, serially diluted 3 times to 8 intermediate concentrations; then the intermediate concentrations of the compound was took out and added to the test buffer, diluted for 200 times to get the final concentration to be tested, 80 μL was took out and added to the test plate.
The highest test concentration was 100 μM, followed by […], 33.33, 11.11, 3.70, 1.23, 0.41, 0.137, 0.045 μM, total 8 concentrations. Each concentration set 3 duplicate wells.
This concentration of DMSO has no effect on the KCNQ2 potassium channel.
Experimental data was analyzed by Excel 2007 and GraphPad Prism 5.0 software, and the ratio of 180 seconds was calculated to calculate the agonism effect. The agonism effect of the compound was calculated by the following formula: […]
Reagent: FluxORTM Detection Kit (Invitrogen, Cat #F0017)
The experimental data in the report must meet the following criteria: Z′ Factor>0.5
2. Results: See Table 1, wherein the smaller the EC50 is, the higher the activity of the corresponding compound is.

[2] = Pharmacokinetics of mice, single intravenous and oral administration, plasma; format: in vivo; conditions: male ICR mice; for AUC(0-inf) / AUC(0-t) / Cmax / Tmax / half-life: mouse, plasma
Experimental: Study on Pharmacokinetics of Mice
1) Research purposes: In order to obtain the pharmacokinetic characteristics and blood-brain barrier of the tested compound in male ICR mice
Six healthy male ICR mice (body weight range 18-22 g) were taken and divided into 2 groups and 3 mice/group. After fasting overnight (only oral administration group), […], blood was collected by jugular vein puncture at time points 0.083 (IV only), 0.25, 0.5, 1, 2, 4, 6 (PO only), 8 and 24 hours, and at least 0.3 mL of whole blood was collected to EDTA-K2 anticoagulant tube. Plasma was centrifuged (6000 rpm, 8 minutes, 4° C.) within half an hour and frozen at −20° C. for later use.
(§1) Experimental results: According to the blood drug concentration data obtained, the non-compartmental model of WinNonlin® 7.0 software (Pharsight, USA) was used to calculate the pharmacokinetic parameters after administration.

[3] = Brain-blood ratio study in mice after single oral administration; format: in vivo; conditions: mouse, brain and plasma, male ICR mice, single oral 10 mg/kg, read-out: Cerebral blood ratio
Experimental: Brain-blood ratio study: 6 healthy male ICR mice (body weight range 18-22 g) were taken and divided into 2 groups and 3 mice/group. After fasting overnight, the compound to be tested (10 mg/kg) was administrated orally respectively. Blood was taken through cardiac puncture at time points 2 and 4 hours, at least 0.5 mL of whole blood was collected to EDTA-K2 anticoagulant tube. Plasma was centrifuged (6000 rpm, 8 minutes, 4° C.) within half an hour and frozen at −20° C. for later use. At the same time, the brain tissue was collected, rinsed with normal saline, then sucked to dryness with absorbent paper, weighed, and frozen at −20° C. for later use.
The cerebral blood ratio is very important to nerve drugs, and it can be seen from Table 3 that the compounds of the present invention have excellent cerebral blood ratio, which will bring better drug efficacy and excellent safety. By comparing the cerebral blood ratios of compound A, compound 1, compound B and compound J, it can be seen that after the tert-butyl of compound A or compound B has been changed into […]

[4] = Pharmacokinetics of rats, single intravenous and oral administration, plasma; format: in vivo; conditions: male SD rats; for AUC(0-inf) / AUC(0-t) / Cmax / Tmax / half-life: rat, plasma
Experimental: Study on Pharmacokinetics of Rats
1) Research purpose: To obtain the pharmacokinetic characteristics of the compounds to be tested in male SD rats.
Pharmacokinetic study: 6 healthy male SD rats (SPF grade) were divided into 2 groups and 3 rats/group. After fasting overnight (only oral administration group), compound A was administrated 0.3 mg/kg intravenously and 5 mg/kg orally, blood was collected by jugular vein puncture at time points 0.083 (IV only), 0.25, 0.5, 1, 2, 4, 6 (PO only), 8 and 24 hours, and at least 0.3 mL of whole blood was collected to EDTA-K2 anticoagulant tube. Plasma was centrifuged (6000 rmp, 8 minutes, 4° C.) within half an hour and frozen at −20° C. for later use.
as §1

EC50 [1]: 0.094 µM
Maximum agonist rate (%) [1]: 48.65%
SMILES: Cc1cc2c(c(C)c1NC(=O)CC1(C)CC1)CCN(c1cccc(F)c1)C2 [Compound Z]

EC50 [1]: 0.44 µM
Maximum agonist rate (%) [1]: 38.3%
F ([2]; gavage 10 mg/kg vs intravenous): 24.6%
AUC(0-inf) ([2]; po, gavage 10 mg/kg): 0.539 µg·h/mL
AUC(0-t) ([2]; po, gavage 10 mg/kg): 0.528 µg·h/mL
Cmax ([2]; po, gavage 10 mg/kg): 0.192 µg/mL
Tmax ([2]; po, gavage 10 mg/kg): 19.8 min
half-life ([2]; po, gavage 10 mg/kg): 232 min
AUC(0-inf) ([2]; intravenous 0.5 mg/kg): 0.108 µg·h/mL
AUC(0-t) ([2]; intravenous 0.5 mg/kg): 0.107 µg·h/mL
Cmax ([2]; intravenous 0.5 mg/kg): 0.299 µg/mL
Tmax ([2]; intravenous 0.5 mg/kg): 4.8 min
half-life ([2]; intravenous 0.5 mg/kg): 51.6 min
Kp at 2 h ([3]; time point 2 h): 6
Kp at 4 h ([3]; time point 4 h): 5.8
F ([4]; gavage 5 mg/kg vs intravenous 0.3 mg/kg): 30.11%
AUC(0-inf) ([4]; po, gavage 5 mg/kg): 0.855 µg·h/mL
AUC(0-t) ([4]; po, gavage 5 mg/kg): 0.822 µg·h/mL
Cmax ([4]; po, gavage 5 mg/kg): 0.221 µg/mL
Tmax ([4]; po, gavage 5 mg/kg): 30 min
half-life ([4]; po, gavage 5 mg/kg): 375 min
AUC(0-inf) ([4]; intravenous 0.3 mg/kg): 0.166 µg·h/mL
AUC(0-t) ([4]; intravenous 0.3 mg/kg): 0.164 µg·h/mL
Cmax ([4]; intravenous 0.3 mg/kg): 0.345 µg/mL
Tmax ([4]; intravenous 0.3 mg/kg): 4.8 min
half-life ([4]; intravenous 0.3 mg/kg): 104 min
SMILES: Cc1cc2c(c(C)c1NC(=O)CC1(C)CC1)CCN(c1ccc(F)cc1)C2 [Compound I]

EC50 [1]: 0.45 µM
Maximum agonist rate (%) [1]: 29.51%
SMILES: C#Cc1ccc(N2CCc3c(cc(C)c(NC(=O)CC(C)(C)C)c3C)C2)cc1 [Compound D]

EC50 [1]: 0.73 µM
Maximum agonist rate (%) [1]: 35.84%
SMILES: Cc1cc2c(c(C)c1NC(=O)CC1(C)CC1)CCN(c1ccccc1F)C2 [Compound A1]

EC50 [1]: 0.33 µM
Maximum agonist rate (%) [1]: 52.3%
SMILES: Cc1ccc(N2CCc3c(cc(C)c(NC(=O)CC(C)(C)C)c3C)C2)cc1 [Compound U]

EC50 [1]: 0.4 µM
Maximum agonist rate (%) [1]: 35.92%
SMILES: Cc1cc2c(c(C)c1NC(=O)CCC1CC1)CCN(c1ccc(F)cc1)C2 [Compound A7]

EC50 [1]: 0.29 µM
Maximum agonist rate (%) [1]: 17.08%
SMILES: Cc1cc2c(c(C)c1NC(=O)CC1(C(F)(F)F)CC1)CCN(c1ccc(F)cc1)C2 [Compound A6]

EC50 [1]: 0.78 µM
Maximum agonist rate (%) [1]: 29.43%
SMILES: Cc1cc2c(c(C)c1NC(=O)CC1(C)CC1)CCN(c1ccc(C#N)cc1)C2 [Compound O]

EC50 [1]: 0.049 µM
Maximum agonist rate (%) [1]: 34.41%
SMILES: Cc1cc2c(c(C)c1NC(=O)CC1CC(F)(F)C1)CCN(c1ccc(F)cc1)C2 [Compound A5]

SMILES: Cc1cc2c(c(C)c1NC(=O)CC1(C)CC1)CCCN(c1ccc(F)cc1)C2 [Compound A2]
EC50 [1]: 0.13 µM
Maximum agonist rate (%) [1]: 44.53%
